The values below come from patent US12448358B2, “Inhibitors of protein arginine deiminase 1 and methods of preparation and use thereof” (University of Massachusetts, priority 2019, dated 2025).

Assay [1] addresses T1, PAD1 (Homo sapiens, UniProt Q9ULC6).
T1 construct: made in house
T1 sequence (Q9ULC6 1-663): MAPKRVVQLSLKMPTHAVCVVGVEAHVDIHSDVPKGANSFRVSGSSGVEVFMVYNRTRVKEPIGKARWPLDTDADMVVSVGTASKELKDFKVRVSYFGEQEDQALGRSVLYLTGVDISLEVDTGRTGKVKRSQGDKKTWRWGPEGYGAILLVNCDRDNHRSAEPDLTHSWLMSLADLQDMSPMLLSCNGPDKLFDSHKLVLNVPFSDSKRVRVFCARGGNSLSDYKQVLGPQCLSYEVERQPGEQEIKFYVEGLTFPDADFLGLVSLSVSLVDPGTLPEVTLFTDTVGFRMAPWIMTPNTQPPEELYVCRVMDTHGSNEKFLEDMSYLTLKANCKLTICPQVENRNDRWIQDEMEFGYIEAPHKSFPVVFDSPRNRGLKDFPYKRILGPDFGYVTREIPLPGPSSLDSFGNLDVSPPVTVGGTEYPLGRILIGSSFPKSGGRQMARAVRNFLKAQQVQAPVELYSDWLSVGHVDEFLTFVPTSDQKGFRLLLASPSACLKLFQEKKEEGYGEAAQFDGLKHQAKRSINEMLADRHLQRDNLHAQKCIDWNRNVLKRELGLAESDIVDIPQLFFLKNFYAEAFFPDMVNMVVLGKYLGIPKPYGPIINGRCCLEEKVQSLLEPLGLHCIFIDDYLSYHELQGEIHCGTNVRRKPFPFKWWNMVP
Nature of the assay: Streptavidin enrichment and ReDiMe proteomics of proteins labelled by probe in HEK293TPAD1 cells (PAD1). Particulars: 5 μM probe versus control. Format: cell-based. The method, then: Enrichment of Proteins Labelled by 21 in HEK293TPAD1 Cells on Streptavidin-agarose. HEK293TPAD1 cells were cultured in 175 cm^2 T-175 flasks in DMEM (supplemented with 10% heat-inactivated fetal bovine serum, 100 units/mL penicillin, 100 μg/mL streptomycin and 0.15 mg/mL hygromycin B). Upon reaching ˜90% confluence, cells were treated with 1 mM CaCl2, 5 μM ionomycin and 5 μM of 21 (or equal volume of DMSO for control) in serum-free DMEM for 3 h. Then the cells were scraped, harvested by centrifugation at 3,000 rpm for 5 min and resuspended in 1×PBS. Cell lysis was performed by probe sonication and soluble proteins in the lysates were quantified by DC Assay (Bio-Rad). Endogenous biotinylated proteins were precleared by incubating the lysates with streptavidin-agarose beads (25 μL for 1 mg of total protein in the lysate) at room temperature for 1 h with constant mixing on an end-over-end shaker. The mixture was centrifuged (1200 g, 3 minute) to separate the beads and the supernatant (pre-cleared lysate). Pre-cleared lysates (2 mg/mL, 500 μL final) were clicked with Biotin-N3 (100 μM), TCEP (1.5 mM), TBTA (0.3 mM) and freshly prepared CuSO4 (4 mM), and the tubes were gently tumbled at room temperature for 2 h. The precipitated proteins were collected by centrifugation at 5,000 rpm for 10 min. […]

Assay [2] deals with T1, PAD1. Nature of the assay: Target engagement assay: labelling of PAD1 in HEK293TPAD1 cells with 21 in the presence of inhibitor. Format: cell-based. Particulars: 5 μM of 21, 3 h, read-out: EC50 of inhibition of labelling of PAD1 by 21. The method, then: Target Engagement Assay—Labelling of PAD1 in HEK293TPAD1 cells with 21 in the presence of 1. This study followed a similar procedure to that described for the dose-dependent labelling of PAD1 in HEK293TPAD1 cells with 21. Briefly, HEK293TPAD1 cells were treated with 1 mM CaCl2, 5 μM ionomycin, 5 μM of 21, and increasing concentrations (0-50 μM) of 1 in serum-free DMEM for 3 h. Cells were scraped, harvested by centrifugation at 3,000 rpm for 5 min and resuspended in 1×PBS. Lysis was carried out by sonicating the cells with a probe sonicator and lysates were clicked with TAMRA-N3 in the presence of TCEP, TBTA and CuSO4 as described above. Protein bands were separated by SDS-PAGE and were visualized by recording in-gel fluorescence. […] All the experiments were performed at least in duplicate.

Regarding `C#Cc1c(I)cc(C(=O)N[C@@H](CCCNC(=N)CF)c2nc3ccccc3[nH]2)c(O)c1I` [Compound 21], the “Enrichment ratio (heavy/light) of PAD1” value on PAD1 [1] is roughly 20.

Regarding `N=C(CF)NCCC[C@H](NC(=O)c1cc(I)cc(I)c1O)c1nc2ccccc2[nH]1` [Compound 1], the EC50 (commonly the concentration giving half of the maximal effect) at PAD1 [2] was determined as 12.7 µM.
